For 40 compounds, EC50 results are on record in patent US9474755B2, “GLP-1 receptor modulators” (Receptos, Inc., priority 2014, dated 2016).

The target of this test is T1, GLP-1R (Homo sapiens, UniProt P43220).
T1 construct: host or cells: CRE-bla CHO-K1
T1 sequence (P43220 24-463): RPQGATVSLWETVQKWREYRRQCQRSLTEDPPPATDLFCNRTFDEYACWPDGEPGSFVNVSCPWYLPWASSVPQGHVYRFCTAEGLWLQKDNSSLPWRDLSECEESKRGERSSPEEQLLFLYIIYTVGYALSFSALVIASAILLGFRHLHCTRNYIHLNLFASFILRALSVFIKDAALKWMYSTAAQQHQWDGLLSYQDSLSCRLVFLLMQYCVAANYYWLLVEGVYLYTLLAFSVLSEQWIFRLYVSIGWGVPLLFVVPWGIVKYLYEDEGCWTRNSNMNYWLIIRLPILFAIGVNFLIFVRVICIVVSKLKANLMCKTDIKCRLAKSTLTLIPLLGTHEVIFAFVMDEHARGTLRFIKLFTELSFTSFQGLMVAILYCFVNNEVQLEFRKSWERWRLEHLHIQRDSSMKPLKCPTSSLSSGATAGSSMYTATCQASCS
T1 sequence (P01275 100-127 partner limits assumed): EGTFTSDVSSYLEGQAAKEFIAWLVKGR
Briefly: EC20 GLP-1(9-36) PAM cAMP Assay: dose response of compound in the presence of fixed concentration of GLP-1(9-36). It is filed as cell-based. The conditions noted are these: GLP-1R CRE-bla CHO-K1 cells, in presence of fixed concentration of GLP-1(9-36), 30 min at 37° C. The method, then: EC20 GLP-1(9-36) PAM cAMP Assay: Dose Response of Compound in the Presence of Fixed Concentration of GLP-1 (9-36).
GLP-1R CRE-bla CHO-K1 cells cultured in growth medium (DMEM-High glucose, 10% dialyzed FBS, 0.1 mM NEAA, 25 mM Hepes, 100 U/mL penicillin/100 μg/mL streptomycin, 5 μg/mL Blasticidin, 600 μg/mL Hygromycin) were trypsinized and plated in suspension into 384 well white flat bottom plates at 5000 cells/well in 12 μL assay buffer (Hanks Balanced Salt solution, 10 mM Hepes, 0.1% BSA, 10 pH 7.4). A 5× compound dose response curve (12-point) was generated in assay buffer containing 1.5 mM IBMX, 4% DMSO. GLP-1(9-36) was diluted to 4.2 μM in assay buffer containing 1.5 mM IBMX and 4% DMSO. The 5× compound dose response was added (3 μL), followed by 0.5 μL of GLP-1(9-36) and cells were incubated for 30 min at 37° C. Direct detection of cAMP was carried out using DiscoveRx HitHunter cAMP kit according to manufacturer's instructions and luminescence was read using a SpectraMax M5 plate reader. Luminescence was converted to total cAMP using a cAMP standard curve and data was analyzed by non-linear regression to determine the EC50 and Emax.
The term EC50 denotes the concentration that produces a half-maximal response. Consider `CCCC1CCC(C2CC=C(c3cnc(-c4ccc(C[C@H](NC(=O)c5ccc(C(C)C)s5)C(=O)N5CC(C(=O)O)C5)cc4)nc3)CC2)CC1` (stereo partly shown) [Compound 17], for which the concentration for a half-maximal effect (EC50) is less than 500 nM.

Regarding `CCCC1CCC(C2CCC(c3cnc(-c4ccc(C[C@H](NC(=O)c5ccc(CC)cc5)C(=O)N5CC(C(=O)O)C5)cc4)nc3)CC2)CC1` (stereo partly shown) [Compound 20], the 50% effective concentration (EC50) lay in the range of 5000 to 10000 nM. Consider `CC[C@H]1CC[C@H](C2CC=C(c3cnc(-c4ccc(C[C@H](NC(=O)c5ccc(C6CC6)cc5)C(=O)N5CC(C(=O)O)C5)cc4)nc3)CC2)CC1` (stereo partly shown) [Compound 104], for which the EC50 was less than 500 nM. With `CCCC1CCC(C2CC=C(c3cnc(-c4ccc(C[C@H](NC(=O)c5ccc(C(C)(C)C)s5)C(=O)N5CC(C(=O)O)C5)cc4)nc3)CC2)CC1` (mixture of isomers) [Compound 6, 1-((2S)-2-(5-(tert-butyl)thiophene-2-carboxamido)-3-(4-(5-(4′-propyl-[1,1′-bi(cyclohexan)]-3-en-4-yl)pyrimidin-2-yl)phenyl)propanoyl)azetidine-3-carboxylic acid] the figure was less than 500 nM; with `CCCC1CCC(C2CC=C(c3cnc(-c4ccc(C[C@H](NC(=O)c5ccc(CC)cc5)C(=O)N5CC(C(=O)O)C5)cc4)nc3)CC2)CC1` (stereo partly shown) [Compound 21], less than 500 nM; with `CCc1ccc(C(=O)N[C@@H](Cc2ccc(-c3ncc(C4=CCC([C@H]5CC[C@H](C)CC5)CC4)cn3)cc2)C(=O)N2CC(C(=O)O)C2)s1` (stereo partly shown) [Compound 91], less than 500 nM.

As to `CCCC1CCC(C2CC=C(c3cnc(-c4ccc(C[C@H](NC(=O)c5ccc(C6CC6)s5)C(=O)N5CC(C(=O)O)C5)cc4)nc3)CC2)CC1` (stereo partly shown) [Compound 34], the EC50 was less than 500 nM. With `CCCC1CCC(C2CC=C(c3cnc(-c4ccc(C[C@H](NC(=O)c5ccc(C(C)(C)C)s5)C(=O)N[C@@H](CO)C(=O)O)cc4)nc3)CC2)CC1` (stereo partly shown) [Compound 73] the figure was less than 500 nM. Consider `CCC[C@H]1CC[C@H](C2CCC(c3cnc(-c4ccc(C[C@H](NC(=O)c5ccc(C(C)(C)C)s5)C(=O)N5CC(C(=O)O)C5)cc4)nc3)=C(C)C2)CC1` (stereo partly shown) [Compound 89], for which the concentration for a half-maximal effect (EC50) was less than 500 nM. With `C[C@@H](NC(=O)[C@H](Cc1ccc(-c2ncc(C3=CCC(NC(=O)OC(C)(C)C)CC3)cn2)cc1)NC(=O)c1ccc(C(C)(C)C)s1)C(=O)O` (stereo partly shown) [Compound 64] the figure was 2500 to 5000 nM; with `CCC(C)(C)c1ccc(C(=O)N[C@@H](Cc2ccc(-c3ncc(C4=CCC([C@H]5CC[C@H](CC)CC5)CC4)cn3)cc2)C(=O)N2CC(C(=O)O)C2)cc1` (stereo partly shown) [Compound 101], less than 500 nM; with `C[C@@H](NC(=O)[C@H](Cc1ccc(-c2ncc(C3=CCC(c4ccccc4)CC3)cn2)cc1)NC(=O)c1ccc(C(C)(C)C)s1)C(=O)O` (stereo partly shown) [Compound 10], less than 500 nM. `CC[C@H]1CC[C@H](C2CC=C(c3cnc(-c4ccc(C[C@H](NC(=O)c5ccc(C(C)(C)C)s5)C(=O)N5CCC[C@H]5C(=O)O)cc4)nc3)CC2)CC1` (stereo partly shown) [Compound 105]: the EC50 was less than 500 nM. In the case of `CCCC1CCC(C2CC=C(c3cnc(-c4ccc(C[C@H](NC(=O)c5ccc(C(C)(C)C)s5)C(=O)S(C)(=O)=O)cc4)nc3)CC2)CC1` (stereo partly shown) [Compound 79], the EC50 was less than 500 nM. For `C[C@@H](NC(=O)[C@H](Cc1ccc(-c2ncc(C3=CCCCC3)cn2)cc1)NC(=O)c1ccc(C(C)(C)C)s1)C(=O)O` [Compound 54], the EC50 lay in the range of 5000 to 10000 nM. For the compound `CCCC1CC=C(c2cnc(-c3ccc(C[C@H](NC(=O)c4ccc(C(C)(C)C)s4)C(=O)N[C@H](C)C(=O)O)cc3)nc2)CC1` (stereo partly shown) [Compound 52], the EC50 was in the range of 500 to 2500 nM. With `C[C@@H](NC(=O)[C@H](Cc1ccc(-c2ncc(C3=CCC(C)(C)C=C3)cn2)cc1)NC(=O)c1ccc(C(C)(C)C)s1)C(=O)O` [Compound 60] the figure was 500 to 2500 nM; with `CC[C@H]1CC[C@H](C2CC=C(c3cnc(-c4ccc(C[C@H](NC(=O)c5ccc(C(C)(C)C)s5)C(=O)NCCC(=O)O)cc4)nc3)CC2)CC1` (stereo partly shown) [Compound 107], less than 500 nM; with `CCCC1CCC(C2CCC(c3cnc(-c4ccc(C[C@H](NC(=O)c5ccc(C(C)C)cc5)C(=O)N5CC(C(=O)O)C5)cc4)nc3)CC2)CC1` (stereo partly shown) [Compound 12], 2500 to 5000 nM. With `CCC[C@H]1CC[C@H](C2CC=C(c3cnc(-c4ccc(C[C@H](NC(=O)c5ccc(C6CC6)s5)C(=O)N5CC(C(=O)O)C5)cc4)nc3)CC2)CC1` (stereo partly shown) [Compound 117] the figure was less than 500 nM; with `CCCCCC1CCC(C2CC=C(c3cnc(-c4ccc(C[C@H](NC(=O)c5ccc(C(C)(C)C)s5)C(=O)N5CC(C(=O)O)C5)cc4)nc3)CC2)CC1` (mixture of isomers) [Compound 4, 1-((2S)-2-(5-(tert-butyl)thiophene-2-carboxamido)-3-(4-(5-(4′-pentyl-[1,1′-bi(cyclohexan)]-3-en-4-yl)pyrimidin-2-yl)phenyl)propanoyl)azetidine-3-carboxylic acid], less than 500 nM; with `CC[C@H]1CC[C@H](C2CC=C(c3cnc(-c4ccc(C[C@H](NC(=O)c5ccc(C6CC6)s5)C(=O)N5CC(C(=O)O)C5)cc4)nc3)CC2)CC1` (stereo partly shown) [Compound 97], less than 500 nM.

With `CC[C@H]1CC[C@H](C2CC=C(c3cnc(-c4ccc(C[C@H](NC(=O)c5ccc(C(C)(C)C)s5)C(=O)N5CC[C@H](C(=O)O)C5)cc4)nc3)CC2)CC1` (stereo partly drawn) [Compound 110, (S)-1-((S)-2-(5-(tert-butyl)thiophene-2-carboxamido)-3-(4-(5-((1RS,1′r,4′RS)-4′-ethyl-[1,1′-bi(cyclohexan)]-3-en-4-yl)pyrimidin-2-yl)phenyl)propanoyl)pyrrolidine-3-carboxylic acid], the EC50 is less than 500 nM. Turning to `CCCCCC1CC=C(c2cnc(-c3ccc(C[C@H](NC(=O)c4ccc(C(C)(C)C)s4)C(=O)N[C@H](C)C(=O)O)cc3)nc2)CC1` (stereo partly shown) [Compound 53], the EC50 was in the range of 500 to 2500 nM. `CC[C@H]1CC[C@H](C2CC=C(c3cnc(-c4ccc(C[C@H](NC(=O)c5ccc(C(C)(C)C)cc5)C(=O)N5CC(C(=O)O)C5)cc4)nc3)CC2)CC1` (stereo partly shown) [Compound 94]: the half-maximal effective concentration (EC50) was less than 500 nM. With `CCCC1CCC(C2CCC(c3cnc(-c4ccc(C[C@H](NC(=O)c5cnn(C(C)(C)C)c5)C(=O)N5CC(C(=O)O)C5)cc4)nc3)CC2)CC1` (stereo partly shown) [Compound 18] the figure was 5000 to 10000 nM; with `CCCC1CCC(C2CC=C(c3cnc(-c4ccc(C[C@H](NC(=O)c5ccc(C(C)(C)C)s5)C(=O)N5C6CCC5C(C(=O)O)C6)cc4)nc3)CC2)CC1` (stereo partly shown) [Compound 80], 500 to 2500 nM; with `CC1(C)COC2(CC=C(c3cnc(-c4ccc(CC(NC(=O)c5ccc(C(C)(C)C)s5)C(=O)N5CC(C(=O)O)C5)cc4)nc3)CC2)OC1` (stereo not shown) [Compound 43], 5000 to 10000 nM. With `CC[C@H]1CC[C@H](C2CC=C(c3cnc(-c4ccc(C[C@H](NC(=O)c5ccc(C(C)C)s5)C(=O)N5CC(C(=O)O)C5)cc4)nc3)CC2)CC1` (stereo partly shown) [Compound 103] the figure was less than 500 nM; with `CCCC1CCC(C2CC=C(c3cnc(-c4ccc(C[C@H](NC(=O)c5ccc(C(C)(C)C)s5)C(=O)N[C@@H](CCN)C(=O)O)cc4)nc3)CC2)CC1` (stereo partly shown) [Compound 72], 2500 to 5000 nM; with `C[C@@H](NC(=O)[C@H](Cc1ccc(-c2ncc(C3=CC(C)(C)CC(C)(C)C3)cn2)cc1)NC(=O)c1ccc(C(C)(C)C)s1)C(=O)O` [Compound 59], less than 500 nM.

Turning to `CC(C)(C)c1ccc(C(=O)N[C@@H](Cc2ccc(-c3ncc(C4=CCC([C@H]5CC[C@H](C)CC5)CC4)cn3)cc2)C(=O)N2CCC[C@H]2C(=O)O)s1` (stereo partly shown) [Compound 111], the EC50 is less than 500 nM. Next, `CCCC1CCC(C2CC=C(c3cnc(-c4ccc(C[C@H](NC(=O)c5ccc(C(C)(C)C)s5)C(=O)N5CC[C@H](C(=O)O)C5)cc4)nc3)CC2)CC1` (stereo partly drawn) [Compound 7, (3S)-1-((2S)-2-(5-(tert-butyl)thiophene-2-carboxamido)-3-(4-(5-(4′-propyl-[1,1′-bi(cyclohexan)]-3-en-4-yl)pyrimidin-2-yl)phenyl)propanoyl)pyrrolidine-3-carboxylic acid]: less than 500 nM; `CCCCCC1CCC(C2CC=C(c3cnc(-c4ccc(C[C@H](NC(=O)c5ccc(C(C)(C)C)s5)C(=O)N5CCC[C@H]5C(=O)O)cc4)nc3)CC2)CC1` (stereo partly shown) [Compound 5]: 500 to 2500 nM; `CCCC1CCC(C2CC=C(c3cnc(-c4ccc(C[C@H](NC(=O)c5ccc(C(C)(C)C(F)(F)F)cc5)C(=O)N5CC(C(=O)O)C5)cc4)nc3)CC2)CC1` (stereo partly shown) [Compound 35]: 500 to 2500 nM.

Turning to `CCCC1CCC(C2CC=C(c3cnc(-c4ccc(C[C@H](NC(=O)c5ccc(OC(C)C)cc5)C(=O)N5CC(C(=O)O)C5)cc4)nc3)CC2)CC1` (stereo partly shown) [Compound 27], the EC50 is less than 500 nM.

For the compound `CC(C)(C)c1ccc(C(=O)N[C@@H](Cc2ccc(-c3ncc(C4=CCC(C5CCCCC5)CC4)cn3)cc2)C(=O)N2CC(C(=O)O)C2)s1` (stereo partly shown) [Compound 77], the EC50 was less than 500 nM. Next, `CC1(C)CCC(C2CC=C(c3cnc(-c4ccc(C[C@H](NC(=O)c5ccc(C(C)(C)C)s5)C(=O)N5CC(C(=O)O)C5)cc4)nc3)CC2)CC1` (stereo partly shown) [Compound 90]: less than 500 nM. Next, `CCCC1CCC(C2CC=C(c3cnc(-c4ccc(C[C@H](NC(=O)c5ccc(CC(C)C)s5)C(=O)N5CC(C(=O)O)C5)cc4)nc3)CC2)CC1` (stereo partly shown) [Compound 32]: less than 500 nM; `COCC1CCC(C2CC=C(c3cnc(-c4ccc(CC(NC(=O)c5ccc(C(C)(C)C)s5)C(=O)N5CC(C(=O)O)C5)cc4)nc3)CC2)CC1` (stereo not shown) [Compound 88]: less than 500 nM.
